Test results as given in US20250228913A1, “STABILIZED OMEGA-3 OPHTHALMIC COMPOSITIONS” (Allergan, Inc., priority 2014, published 2025).
Entries after “also recorded” stand apart in the source; their conditions may differ. Read-outs that look alike come from different tables or passages of the source.

Experiments:
[1] = Physical appearance of omega-3 emulsions on storage; assay type: physicochemical; settings: added in the oil phase
[2] = Physical and chemical stability monitoring of emulsion prototypes with different antioxidants and additives
Procedure: A variety of ophthalmic compositions were evaluated which contained antioxidants with the intent to prevent the degradation of the omega-3 oil components. A common problem with omega-3 oils is their propensity to degrade and become rancid over time.
Emulsion prototypes were designed using a range of excipients including different surfactants, antioxidants and aqueous additives. The physical and chemical stability of these prototype formulations were monitored over 3, 6 and/or 12 months at accelerated and/or long-term storage conditions. […] Details of these stability studies are provided in the examples herein.

[3] = Chemical stability of omega-3 oils in emulsions (FIG. 1, FIG. 2); settings: emulsions of Table 10

Compound	Effect on physical stability of omega-3 oils in emulsion [1]	Effect of antioxidant or additive on stability of omega-3 oils ([2]; in ophthalmic emulsions)	Effect of antioxidant or additive on stability of omega-3 oils [2]	Effect of excipient on chemical stability of omega-3 oils in emulsion [3]
COc1ccc(O)c(C(C)(C)C)c1 [BHA, Butylated hydroxyanisole]	improved physical stability	stabilizing effect		
Cc1cc(C(C)(C)C)c(O)c(C(C)(C)C)c1 [BHT, 2,6-bis(1,1-dimethylethyl)-4-methylphenol]	improved physical stability		stabilizing effect	
O=C([O-])CN(CCN(CC(=O)[O-])CC(=O)O)CC(=O)O.[Na+].[Na+] [EDTA, edetate disodium]		did not impact stability		No significant impact
CC(=O)Oc1c(C)c(C)c2c(c1C)CCC(C)(CCC[C@H](C)CCC[C@H](C)CCCC(C)C)O2 (stereo partly drawn) [Vitamin E acetate]		did not show beneficial effects; also recorded: led to degradation of omega-3 oil		
Cc1c(C)c2c(c(C)c1O)CC[C@@](C)(CCC[C@H](C)CCC[C@H](C)CCCC(C)C)O2 [alpha tocopherol]				worsened the chemical stability
CC(=O)C(=O)O [pyruvate]			did not impact stability	No significant impact
OC[C@H]1O[C@H](O[C@H]2O[C@H](CO)[C@@H](O)[C@H](O)[C@H]2O)[C@H](O)[C@@H](O)[C@@H]1O [trehalose]			did not impact stability	
vitamin E			not effective	
